Patent publication US6610682B2, “Pharmaceutical compositions and methods for the treatment of arteriosclerosis” (Sankyo Company, Limited, priority 1996, dated 2003)

Experiments:
Type in all cases: in vivo, rabbit
WHHL rabbits [1] = assay: Arterial sclerosis progress inhibitory effect: surface area of aortic lesions (Example 2, 31 weeks); conditions: oral, CS-866 0.5 mg/kg, pioglitazone 20 mg/kg, BRL-49653 2.5 mg/kg, alone or combined, autopsy in 31st week
Procedure: A certain amount of an agent was administered orally for 31 weeks to 2-3 months old WHHL rabbits, Watanabe genetically hyperlipemic rabbits: described supra (Biochimica et Biophysica Acta), etc., in groups of 5 to 7 animals each. Incidentally, food consumption was restricted to 100 g/day per animal. Blood samples were collected immediately before administration of the agent and 8, 16, 24 and 31 weeks after the start of administration to measure total cholesterol levels (mg/dl). There were no changes observed in any of the dose groups as compared with the control group to which no agents were administered. In addition, the test animals were subjected to autopsy in the 31st week to investigate the surface area of aortic lesions (%) and the incidence of xanthochromia in finger joints.

WHHL rabbits [2] = assay: Incidence of xanthochromia in finger joints (Example 1, 32 weeks); conditions: oral, CS-866 1 mg/kg, troglitazone 25 mg/kg, alone or combined
Procedure: (§1) A certain amount of an agent was administered orally for 32 weeks to 2-3 months old WHHL rabbits, Watanabe genetically hyperlipemic rabbits: supra (Biochimica et Biophysica Acta), etc., in groups of 4 to 7 animals each. Incidentally, food consumption was restricted to 120 g/day per animal. Blood samples were collected immediately before administration of the agent and 4, 8, 12, 16, 20, 24, 28 and 32 weeks after the start of administration to measure total cholesterol levels (mg/dl). There were no changes observed in any of the dose groups as compared with the control group to which no agents were administered. The test animals were subjected to autopsy in the 32nd week to investigate the surface area of aortic lesions (%) and the incidence of xanthochromia in finger joints (%).

WHHL rabbits [3] = assay: Arterial sclerosis progress inhibitory effect: surface area of aortic lesions (Example 1, 32 weeks); conditions: oral, CS-866 1 mg/kg, troglitazone 25 mg/kg, alone or combined, autopsy in 32nd week
Procedure: as §1

Structure (SMILES) | Lesion surface area (%) Abdominal region (WHHL rabbits [1]) [%] | Lesion surface area (%) Arcuate region (WHHL rabbits [1]) [%] | Lesion surface area (%) Overall (WHHL rabbits [1]) [%] | Lesion surface area (%) Thoracic part (WHHL rabbits [1]) [%] | Xanthochromia incidence (%) Forelimbs (WHHL rabbits [2]) [%] | Xanthochromia incidence (%) Hindlimbs (WHHL rabbits [2]) [%] | Xanthochromia incidence (%) Overall (WHHL rabbits [2]) [%] | Lesion surface area (%) Abdominal region (WHHL rabbits [3]) [%] | Lesion surface area (%) Arcuate region (WHHL rabbits [3]) [%] | Lesion surface area (%) Overall (WHHL rabbits [3]) [%] | Lesion surface area (%) Thoracic part (WHHL rabbits [3]) [%]
CCc1ccc(CCOc2ccc(CC3SC(=O)NC3=O)cc2)nc1 (centres unmarked) [Pioglitazone, 5-[4-[2-(5-ethyl-pyridin-2-yl)ethoxy]phenylmethyl]-2,4-thiazolidinedione] | 32 ± 6 | 65 ± 6 | 52 ± 8 | 62 ± 12 | – | – | – | – | – | – | –
Cc1c(C)c2c(c(C)c1O)CCC(C)(COc1ccc(CC3SC(=O)NC3=O)cc1)O2 (centres unmarked) [Troglitazone, 5-[4-(6-hydroxy-2,5,7,8-tetramethylchroman-2-ylmethoxy)benzyl]-2,4-thiazolidinedione] | – | – | – | – | 93 | 86 | 89 | 32 | 80 | 54 | 57
CCCc1nc(C(C)(C)O)c(C(=O)OCc2oc(=O)oc2C)n1Cc1ccc(-c2ccccc2-c2nnn[nH]2)cc1 [CS-866, (5-methyl-2-oxo-1,3-dioxolen-4-yl)methyl 4-(1-hydroxy-1-methylethyl)-2-propyl-1-[2′-(1H-tetrazol-5-yl)biphenyl-4-ylmethyl]imidazole-5-carboxylate] | 32 ± 8 | 66 ± 5 | 44 ± 7 | 41 ± 10 | 100 | 100 | 100 | 19 | 68 | 34 | 26
CN(CCOc1ccc(CC2SC(=O)NC2=O)cc1)c1ccccn1 (centres unmarked) [BRL-49653, 5-[4-[2-[N-methyl-N-(pyridin-2-yl)amino]ethoxy]phenylmethyl]-2,4-thiazolidinedione] | 29 ± 4 | 83 ± 2 | 52 ± 5 | 54 ± 12 | – | – | – | – | – | – | –
